Measured values as given in ChEMBL document CHEMBL1629671, “Activity of posaconazole and other antifungal agents against Mucorales strains identified by sequencing of internal transcribed spacers” (2009).
Converted amounts (≈) assume the structure as drawn.

What was measured:
Type in all cases: functional
Apophysomyces [1] = assay: Antifungal activity against Apophysomyces spp. after 48 hrs by microdilution method
[2] = system: Cunninghamella bertholletiae; assay: Antifungal activity against Cunninghamella bertholletiae after 24 hrs by microdilution method
[3] = Antifungal activity against Rhizomucor variabilis after 24 hrs by microdilution method
[4] = Antifungal activity against Rhizomucor pusillus after 24 hrs by microdilution method
Cunninghamella [5] = assay: Antifungal activity against Cunninghamella spp. after 48 hrs by microdilution method
Mucor circinelloides [6] = assay: Antifungal activity against Mucor circinelloides after 24 hrs by microdilution method
[7] = Antifungal activity against Rhizomucor pusillus after 48 hrs by microdilution method
Mucor circinelloides [8] = assay: Antifungal activity against Mucor circinelloides after 48 hrs by microdilution method
Rhizopus arrhizus [9] = assay: Antifungal activity against Rhizopus oryzae after 48 hrs by microdilution method
Cunninghamella [10] = assay: Antifungal activity against Cunninghamella spp. after 24 hrs by microdilution method
Lichtheimia corymbifera [11] = assay: Antifungal activity against Mycocladus corymbifer after 48 hrs by microdilution method
Actinomucor [12] = assay: Antifungal activity against Actinomucor spp. after 48 hrs by microdilution method
[13] = Antifungal activity against Rhizopus microsporus after 24 hrs by microdilution method
[14] = Antifungal activity against Rhizopus microsporus after 48 hrs by microdilution method
Apophysomyces [15] = assay: Antifungal activity against Apophysomyces spp. after 24 hrs by microdilution method
[16] = Antifungal activity against Rhizomucor variabilis after 48 hrs by microdilution method
Rhizopus arrhizus [17] = assay: Antifungal activity against Rhizopus oryzae after 24 hrs by microdilution method
[18] = system: Cunninghamella bertholletiae; assay: Antifungal activity against Cunninghamella bertholletiae after 48 hrs by microdilution method
Lichtheimia corymbifera [19] = assay: Antifungal activity against Mycocladus corymbifer after 24 hrs by microdilution method
Actinomucor [20] = assay: Antifungal activity against Actinomucor spp. after 24 hrs by microdilution method

SMILES | MIC (Apophysomyces [1]) [µg/mL] | MIC [2] [µg/mL] | MIC [3] [µg/mL] | MIC [4] [µg/mL] | MIC (Cunninghamella [5]) [µg/mL] | MIC (Mucor circinelloides [6]) [µg/mL] | MIC [7] [µg/mL] | MIC (Mucor circinelloides [8]) [µg/mL] | MIC (Rhizopus arrhizus [9]) [µg/mL] | MIC (Cunninghamella [10]) [µg/mL] | MIC (Lichtheimia corymbifera [11]) [µg/mL] | MIC (Actinomucor [12]) [µg/mL] | MIC [13] [µg/mL] | MIC [14] [µg/mL] | MIC (Apophysomyces [15]) [µg/mL] | MIC [16] [µg/mL] | MIC (Rhizopus arrhizus [17]) [µg/mL] | MIC [18] [µg/mL] | MIC (Lichtheimia corymbifera [19]) [µg/mL] | MIC (Actinomucor [20]) [µg/mL]
C[C@@H](c1nc(-c2ccc(C#N)cc2)cs1)[C@](O)(Cn1cncn1)c1ccc(F)cc1F [RAVUCONAZOLE] | 4 (≈ 9.14 µM) | 8 (≈ 18.3 µM) | 8 (≈ 18.3 µM) | 0.66 (≈ 1.51 µM) | 8 (≈ 18.3 µM) | 11.9 (≈ 27.2 µM) | 0.87 (≈ 1.99 µM) | 13.1 (≈ 30 µM) | 1.32 (≈ 3.02 µM) | 1 (≈ 2.29 µM) | 2 (≈ 4.57 µM) | 0.5 (≈ 1.14 µM) | 0.89 (≈ 2.03 µM) | 1.78 (≈ 4.07 µM) | 2 (≈ 4.57 µM) | 16 (≈ 36.6 µM) | 1 (≈ 2.29 µM) | 12.1 (≈ 27.7 µM) | 1.22 (≈ 2.79 µM) | 0.25 (≈ 0.571 µM)
CCC(C)n1ncn(-c2ccc(N3CCN(c4ccc(OCC5COC(Cn6cncn6)(c6ccc(Cl)cc6Cl)O5)cc4)CC3)cc2)c1=O (stereo not given) [ITRACONAZOLE] | 16 (≈ 22.7 µM) | 3.17 (≈ 4.49 µM) | 16 (≈ 22.7 µM) | 0.29 (≈ 0.411 µM) | 4 (≈ 5.67 µM) | 11.9 (≈ 16.8 µM) | 0.44 (≈ 0.624 µM) | 16 (≈ 22.7 µM) | 6.96 (≈ 9.86 µM) | 0.5 (≈ 0.709 µM) | 1.35 (≈ 1.91 µM) | 2 (≈ 2.83 µM) | 1.59 (≈ 2.25 µM) | 3.56 (≈ 5.05 µM) | 16 (≈ 22.7 µM) | 16 (≈ 22.7 µM) | 4 (≈ 5.67 µM) | 10.1 (≈ 14.3 µM) | 0.68 (≈ 0.964 µM) | 2 (≈ 2.83 µM)
C[C@@H]1[C@H](O)[C@@H](C)/C=C/C=C/C=C/C=C/C=C/C=C/C=C/[C@H](O[C@@H]2O[C@H](C)[C@@H](O)[C@H](N)[C@@H]2O)C[C@@H]2O[C@](O)(C[C@@H](O)C[C@@H](O)[C@H](O)CC[C@@H](O)C[C@@H](O)CC(=O)O[C@H]1C)C[C@H](O)[C@H]2C(=O)O [AMPHOTERICIN B] | 8 (≈ 8.66 µM) | 7.13 (≈ 7.72 µM) | 0.03 (≈ 0.0325 µM) | 0.05 (≈ 0.0541 µM) | 4 (≈ 4.33 µM) | 0.05 (≈ 0.0541 µM) | 0.1 (≈ 0.108 µM) | 0.15 (≈ 0.162 µM) | 1 (≈ 1.08 µM) | 2.83 (≈ 3.06 µM) | 0.14 (≈ 0.152 µM) | 1.41 (≈ 1.53 µM) | 0.45 (≈ 0.487 µM) | 0.89 (≈ 0.963 µM) | 2 (≈ 2.16 µM) | 0.09 (≈ 0.0974 µM) | 0.29 (≈ 0.314 µM) | 7.13 (≈ 7.72 µM) | 0.08 (≈ 0.0866 µM) | 1 (≈ 1.08 µM)
C[C@@H](c1ncncc1F)[C@](O)(Cn1cncn1)c1ccc(F)cc1F [VORICONAZOLE] | 16 (≈ 45.8 µM) | 16 (≈ 45.8 µM) | 16 (≈ 45.8 µM) | 5.28 (≈ 15.1 µM) | 16 (≈ 45.8 µM) | 16 (≈ 45.8 µM) | 6.06 (≈ 17.3 µM) | 16 (≈ 45.8 µM) | 16 (≈ 45.8 µM) | 16 (≈ 45.8 µM) | 16 (≈ 45.8 µM) | 22.6 (≈ 64.8 µM) | 8 (≈ 22.9 µM) | 8.98 (≈ 25.7 µM) | 16 (≈ 45.8 µM) | 16 (≈ 45.8 µM) | 12.1 (≈ 34.7 µM) | 16 (≈ 45.8 µM) | 14.5 (≈ 41.5 µM) | 16 (≈ 45.8 µM)
CN(C/C=C/C#CC(C)(C)C)Cc1cccc2ccccc12 [TERBINAFINE] | 2 (≈ 6.86 µM) | 0.4 (≈ 1.37 µM) | 32 (≈ 110 µM) | 0.22 (≈ 0.755 µM) | 0.18 (≈ 0.618 µM) | 21.5 (≈ 73.9 µM) | 0.33 (≈ 1.13 µM) | 32 (≈ 110 µM) | 32 (≈ 110 µM) | 0.13 (≈ 0.446 µM) | 1 (≈ 3.43 µM) | 0.36 (≈ 1.24 µM) | 0.71 (≈ 2.44 µM) | 1.41 (≈ 4.84 µM) | 2 (≈ 6.86 µM) | 32 (≈ 110 µM) | 24.2 (≈ 83.2 µM) | 0.49 (≈ 1.68 µM) | 0.5 (≈ 1.72 µM) | 0.125 (≈ 0.429 µM)
CC[C@@H]([C@H](C)O)n1ncn(-c2ccc(N3CCN(c4ccc(OC[C@@H]5CO[C@@](Cn6cncn6)(c6ccc(F)cc6F)C5)cc4)CC3)cc2)c1=O [POSACONAZOLE] | 1 (≈ 1.43 µM) | 2.3 (≈ 3.28 µM) | 1.41 (≈ 2.01 µM) | 0.16 (≈ 0.228 µM) | 4 (≈ 5.71 µM) | 1.49 (≈ 2.13 µM) | 0.28 (≈ 0.4 µM) | 2.69 (≈ 3.84 µM) | 2 (≈ 2.85 µM) | 0.25 (≈ 0.357 µM) | 0.67 (≈ 0.956 µM) | 0.125 (≈ 0.178 µM) | 0.79 (≈ 1.13 µM) | 3.17 (≈ 4.52 µM) | 0.5 (≈ 0.713 µM) | 16 (≈ 22.8 µM) | 1.15 (≈ 1.64 µM) | 4.59 (≈ 6.55 µM) | 0.41 (≈ 0.585 µM) | 0.06 (≈ 0.0856 µM)
